This is an account of results in US8846715B2, “(2S,3R)-N-(2((3-pyridinyl)methyl)-1-azabicyclo[2.2.2]oct-3-yl)benzofuran-2-carboxamide novel salt forms, and methods of use thereof” (Targacept, Inc., priority 2007, dated 2014).

Usually Ki stands for a dissociation constant, usually derived from enzyme kinetics or from competition with a known ligand. A high value points to weaker binding. Usually inhibition stands for the percentage by which the read-out fell short of the control. For orientation: Emax means the maximal effect, on the per cent scale that the assay sets.

The target in one data set is α4β2 NNRs (Homo sapiens, UniProt P17787+P43681). In words: Binding to α4β2 NNRs.
For data set [1], the system named is rats. To be noted: 0.3 and 1.0 mg/kg s.c., apomorphine 1.0 mg/kg (FIG. 8).
Procedure: The reversal of apomorphine-induced locomotor activity (APO LOCO) assay was performed in accord with the description of Roux et al., Curr.
For the next data set, the target named is human α4β2 sub-type (Homo sapiens, UniProt P17787+P43681). Kind of data set: Electrophysiology, human α4β2 in Xenopus oocytes.
Data set [2] is described as follows: Water solubility (salt screening). In kind it is physicochemical. As to the method: Thermodynamic Aqueous Solubility by HPLC
The suspension was equilibrated at 25° C. for 24 h, and then the pH was measured. The suspension was then filtered through a glass fiber C filter into a 96 well plate. The filtrate was then diluted by a factor of 101. Quantitation was by HPLC with reference to a standard solution of approximately 0.1 mg/mL in DMSO. Different volumes of the standard, diluted and undiluted sample solutions were injected. The solubility was calculated using the peak areas determined by integration of the peak found at the same retention time as the principal peak in the standard injection. If there was sufficient solid in the filter plate, the XRPD was collected.

Data set [3] concerns rats. In words: Object recognition (OR) paradigm. In kind it is in vivo.
A short description of data set [4]: Radial arm maze (RAM) paradigm. The format is in vivo. The following applies: p.o. 30 minutes prior to daily session, 0.3 mg/kg, second week (FIG. 7). From the text: FIG. 7 illustrates an assessment of cognitive effects in a radial arm maze (RAM) paradigm.
Another data set addresses T1, mouse 5HT3 receptor (Mus musculus, UniProt P23979).
T1 sequence (P23979 24-489): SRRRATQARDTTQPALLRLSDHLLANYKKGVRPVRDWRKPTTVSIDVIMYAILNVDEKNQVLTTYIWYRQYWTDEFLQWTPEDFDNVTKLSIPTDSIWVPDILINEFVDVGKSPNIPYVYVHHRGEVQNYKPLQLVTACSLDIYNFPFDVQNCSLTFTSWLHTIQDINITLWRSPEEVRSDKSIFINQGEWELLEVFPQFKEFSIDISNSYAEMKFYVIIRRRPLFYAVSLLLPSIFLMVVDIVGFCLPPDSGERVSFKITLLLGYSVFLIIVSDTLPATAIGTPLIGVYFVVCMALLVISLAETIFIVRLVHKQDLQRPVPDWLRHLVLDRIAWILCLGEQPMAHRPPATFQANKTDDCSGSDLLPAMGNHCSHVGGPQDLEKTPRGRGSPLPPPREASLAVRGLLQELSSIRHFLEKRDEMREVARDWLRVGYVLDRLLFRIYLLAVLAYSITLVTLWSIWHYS
Kind of data set: Radioligand binding at mouse 5HT3 receptor. The following applies: read-out: Inhibition of radioligand binding at mouse 5HT3 receptor.

The target of the next data set is human α7 NNRs (Homo sapiens, UniProt P36544). Kind of data set: cell-based. To be noted: read-out: E. (Emax) of ACh response.
A further data set deals with T2, M1 muscarinic receptors (Homo sapiens, UniProt P11229).
T2 sequence (P11229 1-460): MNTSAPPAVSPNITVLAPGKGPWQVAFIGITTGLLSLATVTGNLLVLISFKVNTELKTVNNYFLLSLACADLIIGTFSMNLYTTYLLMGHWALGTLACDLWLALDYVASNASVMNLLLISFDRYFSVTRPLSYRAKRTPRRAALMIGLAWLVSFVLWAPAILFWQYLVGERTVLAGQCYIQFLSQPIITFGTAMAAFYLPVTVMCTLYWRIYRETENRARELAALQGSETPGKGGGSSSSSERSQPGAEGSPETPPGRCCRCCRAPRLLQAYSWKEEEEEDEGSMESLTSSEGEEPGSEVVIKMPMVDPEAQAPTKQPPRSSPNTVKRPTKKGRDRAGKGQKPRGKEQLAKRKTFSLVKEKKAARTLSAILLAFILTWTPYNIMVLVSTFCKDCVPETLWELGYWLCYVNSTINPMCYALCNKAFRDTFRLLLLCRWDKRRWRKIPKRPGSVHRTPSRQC
Kind of data set: Competitive binding inhibition, M1 muscarinic.

A short description of data set [5]: Pre-pulse inhibition (PPI), apomorphine-induced deficits. In kind it is in vivo. To be noted: subcutaneous pretreatment (FIG. 9).
In a further data set the target is T3, M2 muscarinic receptors (Homo sapiens, UniProt P08172).
T3 sequence (P08172 1-466): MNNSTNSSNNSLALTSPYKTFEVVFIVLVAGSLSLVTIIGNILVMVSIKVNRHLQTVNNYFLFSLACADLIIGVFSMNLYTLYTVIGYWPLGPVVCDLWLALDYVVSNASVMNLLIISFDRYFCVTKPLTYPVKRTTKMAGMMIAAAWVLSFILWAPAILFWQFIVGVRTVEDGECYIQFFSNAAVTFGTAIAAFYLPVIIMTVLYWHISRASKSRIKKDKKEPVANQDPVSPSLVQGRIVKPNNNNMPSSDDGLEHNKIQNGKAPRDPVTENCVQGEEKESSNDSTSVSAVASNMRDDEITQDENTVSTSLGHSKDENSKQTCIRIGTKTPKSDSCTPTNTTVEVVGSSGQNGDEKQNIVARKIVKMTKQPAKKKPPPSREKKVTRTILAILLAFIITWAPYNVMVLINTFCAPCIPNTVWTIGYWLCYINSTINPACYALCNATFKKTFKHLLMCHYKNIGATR
In words: Competitive binding inhibition, M2 muscarinic.

Data set [6] deals with rats. In words: MK-801 induced deficits in the OR task. The following applies: 0.3 and 1 mg/kg i.p. (FIGS. 5A, 5B). In kind it is in vivo.
A further data set concerns the target T4, human 5HT3 receptor (Homo sapiens, UniProt P46098).
T4 sequence (P46098 24-478): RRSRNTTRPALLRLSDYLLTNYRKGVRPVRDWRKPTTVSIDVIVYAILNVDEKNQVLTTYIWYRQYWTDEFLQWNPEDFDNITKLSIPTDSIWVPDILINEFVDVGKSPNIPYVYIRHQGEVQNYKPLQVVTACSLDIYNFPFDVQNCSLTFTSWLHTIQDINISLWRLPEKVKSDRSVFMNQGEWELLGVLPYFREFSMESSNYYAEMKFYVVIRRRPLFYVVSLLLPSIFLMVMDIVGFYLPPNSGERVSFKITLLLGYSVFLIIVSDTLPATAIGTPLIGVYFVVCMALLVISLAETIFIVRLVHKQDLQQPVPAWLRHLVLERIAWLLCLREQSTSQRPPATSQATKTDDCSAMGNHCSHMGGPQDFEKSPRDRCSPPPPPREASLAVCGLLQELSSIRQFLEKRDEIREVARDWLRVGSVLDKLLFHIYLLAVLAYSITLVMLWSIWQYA
In words: Radioligand binding at human 5HT3 receptor. To be noted: read-out: Inhibition of radioligand binding at human 5HT3 receptor.

Data set [7] has as its target rat α7 NNRs stably expressed in GH4C1 (mammalian) cells (Rattus norvegicus, UniProt Q05941). Kind of data set: Patch clamp electrophysiology, rat α7 NNR in GH4C1 cells. (The patch-clamp technique gives a direct electrical read-out from membranes.)
Procedure: Electrophysiological measurement of α7 NNR response were taken in two expression systems: rat α7 NNR in mammalian GH4C1 cells and human α7 NNR in Xenopus oocytes.
Electrophysiological measurements of agonist activity were achieved using the Dynaflow rapid perfusion system and patch clamp using this GH4C1 cell expression system.
Whole-cell currents recorded with an Axopatch 700A amplifier were filtered at 1 kHz and sampled at 5 kHz by a PCI card (National Instrument). […] Cells were recorded at room temperature in the following extracellular medium: 130 mM NaCl, 5 mM KCl, 2 mM CaCl2, 2 mM MgCl2, 10 mM HEPES, adjusted to pH 7.4 with aqueous NaOH. […] Under these conditions, the macro-current activity obtained with NNR whole-cell recording lasts up to 60 min when elicited with a 1000 μM acetylcholine (ACh) concentration.
Cell handling procedures were adopted from Cellectricon application notes for Dynaflow. Briefly, after removal from the incubator, cells were washed thoroughly three times with recording medium and placed on the stage of a inverted Zeiss microscope. On average 5 min was necessary before the whole-cell recording configuration was established. To avoid modification of the cell conditions, a single cell was recorded per single load of cells into Dynaflow silicon chip. […] Cells were held at −60 mV throughout the experiment. […]
Data set [8] is described as follows: Hygroscopicity (salt screening). The format is physicochemical. As to the method:
Sorption isotherms were determined on either or both of two instruments. Some were experiments were run using a VTI Corporation SGA-100 moisture sorption analyzer, controlled by VTI FlowSystem 4 software. The sample temperature was maintained at 25° C. with the aid of a Polyscience constant temperature bath. The humidity was controlled by mixing streams of dry and wet nitrogen. The weight change as a function of % RH was monitored using a Cahn Digital Recording Balance D-200 with an accuracy of +/−0.0001 g.
Typically a 10-20 mg sample was placed on the tared balance pan under ambient conditions. The sample was dried at 50° C. for 1 h. The standard adsorption isotherm was performed at 25° C. at 5% RH intervals over a 5-95% RH range, and the desorption isotherm was similarly done at 25° C. at 5% RH intervals over a 95-5% RH range. Sample equilibration criteria included 0.0100 wt % in 5 min or a maximum equilibration time of 180 min for each % RH data point.
Some sorption isotherms were obtained using a Hiden IGASorp moisture sorption analyser, controlled by CFRSorp software. The sample temperature was maintained at 25° C. by a Huber re-circulating water bath. The humidity was controlled by mixing streams of dry and wet nitrogen, with a total flow rate of 250 mL/min. The relative humidity was measured by a calibrated Vaisala RH probe (dynamic range of 0-95% RH), located near the sample. The weight change, (mass relaxation) of the sample as a function of % RH was constantly monitored by the microbalance (accuracy ±0.001 mg). Typically 10-20 mg of sample was placed in a tared mesh stainless steel basket under ambient conditions. The sample was loaded and unloaded at 40% RH and 25° C. (typical ambient conditions). A moisture sorption isotherm was performed as outlined below (2 scans giving 1 complete cycle). The standard isotherm was performed at 25° C. at 10% RH intervals over a 0-90% RH range.
The software uses a least squares minimization procedure together with a model of the mass relaxation, to predict an asymptotic value. The measured mass relaxation value must be within 5% of that predicted by the software, before the next % RH value is selected. The minimum equilibration time was set to 1 h and the maximum to 4 h. Typically, samples were recovered after completion of the isotherm and re-analyzed by XRPD.

Data set [9] in a line: Solid state stability by XRPD, 40° C./75% RH. In kind it is physicochemical. The following applies: 1 week at 40° C./75% RH. As for the experimental part:
X-Ray Powder Diffraction patterns were collected either or both of two instruments. Some were collected on a Siemens D5000 diffractometer using CuKα radiation (40 kV, 40 mA), 0-0 goniometer, V20 divergence and receiving slits, a graphite secondary monochromator and a scintillation counter. The instrument was performance checked using a certified Corundum standard (NIST 1976). Samples run under ambient conditions were prepared as flat plate specimens using powder as received. Approximately 35 mg of the sample was gently packed into a cavity cut into polished, zero-background (510) silicon wafer. The sample was rotated in its own plane during analysis, scanning from 2° to 42° in steps of 0.05° at 4 seconds per step, using CuKα1 (λ=1.5406 Å).
The tosylate salt, specifically the crystalline mono salt, was confirmed and the diffraction pattern is shown in FIG. 14 using CuKα radiation (40 kV, 40 mA), 0-0 goniometer, V20 divergence and receiving slits, a graphite secondary monochromator, and a scintillation counter. […] Likely, the change is due to a more hydrated form.

SMILES strings stand for the structures. “Also recorded” adds a separate entry of the source.

rat α7 NNRs stably expressed in GH4C1 (mammalian) cells, sequence (Q05941 23-502): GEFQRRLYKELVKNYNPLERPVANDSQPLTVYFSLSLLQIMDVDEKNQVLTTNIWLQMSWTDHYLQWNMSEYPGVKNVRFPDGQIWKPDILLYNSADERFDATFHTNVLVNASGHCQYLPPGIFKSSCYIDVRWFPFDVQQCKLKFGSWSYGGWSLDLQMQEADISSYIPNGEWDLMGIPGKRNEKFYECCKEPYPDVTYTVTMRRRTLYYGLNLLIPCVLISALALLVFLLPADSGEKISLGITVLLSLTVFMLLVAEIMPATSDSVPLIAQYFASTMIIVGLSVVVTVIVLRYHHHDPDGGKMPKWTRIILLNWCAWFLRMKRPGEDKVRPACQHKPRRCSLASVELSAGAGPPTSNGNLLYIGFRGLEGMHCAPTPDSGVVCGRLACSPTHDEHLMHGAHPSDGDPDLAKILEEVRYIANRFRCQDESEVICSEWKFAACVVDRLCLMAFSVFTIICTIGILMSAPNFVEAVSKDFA
human α4β2 sub-type, sequence (P43681 29-627 limits assumed): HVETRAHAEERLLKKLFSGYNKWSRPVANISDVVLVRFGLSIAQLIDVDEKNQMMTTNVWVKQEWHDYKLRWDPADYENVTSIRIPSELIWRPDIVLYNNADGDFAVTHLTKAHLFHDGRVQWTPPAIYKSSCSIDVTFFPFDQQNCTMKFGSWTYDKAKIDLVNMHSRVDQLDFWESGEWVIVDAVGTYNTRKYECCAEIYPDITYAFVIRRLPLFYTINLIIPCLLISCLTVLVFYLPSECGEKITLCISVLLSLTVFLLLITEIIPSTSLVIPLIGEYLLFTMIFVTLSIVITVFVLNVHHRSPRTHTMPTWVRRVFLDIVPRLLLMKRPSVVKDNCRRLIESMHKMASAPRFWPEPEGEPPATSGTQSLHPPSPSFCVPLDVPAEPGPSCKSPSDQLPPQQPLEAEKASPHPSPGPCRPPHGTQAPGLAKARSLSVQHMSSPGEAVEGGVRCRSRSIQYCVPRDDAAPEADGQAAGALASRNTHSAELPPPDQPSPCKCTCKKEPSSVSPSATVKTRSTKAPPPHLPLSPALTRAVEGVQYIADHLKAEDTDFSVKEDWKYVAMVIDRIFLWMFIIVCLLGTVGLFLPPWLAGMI
human α4β2 sub-type, sequence (P17787 26-502): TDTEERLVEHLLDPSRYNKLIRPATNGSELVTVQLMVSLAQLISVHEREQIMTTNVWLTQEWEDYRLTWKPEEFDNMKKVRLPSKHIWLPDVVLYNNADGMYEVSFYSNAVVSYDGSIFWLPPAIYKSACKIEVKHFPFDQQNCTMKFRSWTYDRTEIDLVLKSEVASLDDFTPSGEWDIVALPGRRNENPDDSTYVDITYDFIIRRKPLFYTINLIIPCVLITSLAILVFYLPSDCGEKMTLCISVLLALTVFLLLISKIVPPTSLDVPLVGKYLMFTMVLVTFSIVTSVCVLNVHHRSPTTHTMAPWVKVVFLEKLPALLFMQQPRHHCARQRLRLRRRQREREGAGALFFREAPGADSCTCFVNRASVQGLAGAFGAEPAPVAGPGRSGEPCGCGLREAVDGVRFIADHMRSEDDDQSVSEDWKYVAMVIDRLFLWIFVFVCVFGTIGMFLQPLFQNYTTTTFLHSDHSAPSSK
human α7 NNRs, sequence (P36544 23-502): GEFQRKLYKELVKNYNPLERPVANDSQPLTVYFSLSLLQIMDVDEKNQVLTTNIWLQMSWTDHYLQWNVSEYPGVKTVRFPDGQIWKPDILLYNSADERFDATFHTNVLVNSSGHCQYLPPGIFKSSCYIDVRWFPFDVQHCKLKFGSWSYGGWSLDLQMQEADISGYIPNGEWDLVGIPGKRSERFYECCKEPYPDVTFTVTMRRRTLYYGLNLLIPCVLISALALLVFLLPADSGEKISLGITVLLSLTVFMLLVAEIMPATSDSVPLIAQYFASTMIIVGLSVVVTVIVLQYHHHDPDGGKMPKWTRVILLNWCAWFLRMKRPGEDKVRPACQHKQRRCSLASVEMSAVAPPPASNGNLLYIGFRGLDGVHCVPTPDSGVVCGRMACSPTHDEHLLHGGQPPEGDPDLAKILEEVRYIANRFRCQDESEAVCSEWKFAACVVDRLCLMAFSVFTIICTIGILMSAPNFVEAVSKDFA
α4β2 NNRs, sequence (P43681 29-627 limits assumed): as the sequence (P43681 29-627 limits assumed) above
α4β2 NNRs, sequence (P17787 26-502): as the sequence (P17787 26-502) above
Procedure for human α7 NNRs: Mature (>9 cm) female Xenopus laevis African toads (Nasco, Ft. Atkinson, Wis.) were used as a source of oocytes. Prior to surgery, the toads were anesthetized by placing the animal in a 1.5 g/L solution of 3-aminobenzoic acid ethyl ester for 30 min. Oocytes were removed from an incision made in the abdomen.
Subsequently, stage 5 oocytes were isolated and injected with 50 mL (5-20 ng) each of the human α7 cRNA. Recordings were made 2 to 7 days after injection. Fresh acetylcholine (ACh) stock solutions were made daily in Ringer's solution.
Experiments were conducted using OpusXpress 6000A (Axon Instruments, Union City Calif.). […]
Each oocyte received an initial control application of ACh, then an experimental drug application, and then a follow-up control application of ACh (300 μM). Responses to experimental drug applications were calculated relative to the preceding ACh control responses in order to normalize the data, compensating for the varying levels of channel expression among the oocytes. […] Means and standard errors (SEM) were calculated from the normalized responses of at least four oocytes for each experimental concentration. For concentration-response relations, data derived from net charge analyses were plotted using Kaleidagraph 3.0.2 (Abelbeck Software; Reading, Pa.), and curves were generated from the Hill equation.

As to `O=C(N[C@@H]1C2CCN(CC2)[C@H]1Cc1cccnc1)c1cc2ccccc2o1` (single isomer, unassigned) [Compound A], the Ki on α4β2 NNRs is greater than 2000 nM. Moreover, the “Effect on apomorphine-induced locomotor hyperactivity” value in the data set on rats [1] is given as “displays effectiveness in reversing apomorphine-induced locomotor activity”. Moreover, at human α4β2 sub-type, the “Activation of human α4β2” value is on record as “no detectable activation”. In addition, the “Decreases in subsequent control responses to ACh at α4β2” value on human α4β2 sub-type is “no significant decreases”. Also, the Water solubility result in data set [2] is “very limited water solubility”. In addition, in the data set with rats [3] (0.3 mg/kg orally (FIG. 6)), the “Duration of cognitive effects in OR” value was “at least 18 hours”. Also, the “Time investigating novel versus familiar object” value with rats [3] (0.3 mg/kg p.o. sub-acute, 30 min, 2 h, 6 h and 18 h after final administration) is “significantly (P<0.05) more time investigating object B (novel) than object A (familiar)”. Further, in the data set with rats [3] (rats, 0.3 and 1 mg/kg i.p. (FIG. 3)), the “Cognitive effects in object recognition, i.p.” value was “potent activity”. Besides, the “Cognitive effects in object recognition, p.o.” value in the data set with rats [3] (rats, p.o., 0.3-10 mg/kg (FIG. 4)) is listed as “potent activity; also recorded: activity across a wide dose range”. In addition, in [4], the “Performance in radial arm maze (working memory)” value is “significantly increased the number of correct choices prior to error”. Also, the inhibition at 10 µM on mouse 5HT3 receptor stood at 59%; at human 5HT3 receptor, 25%. Further, the Emax at human α7 NNRs was found to be 100%; in data set [7] (GH4-C1, read-out: Emax relative to acetylcholine (ACh)), 93%. For the same compound, the “Interaction with M1 muscarinic receptors” value on M1 muscarinic receptors is reported as “minimal to no interaction”. In addition, in data set [5], the “Effect on apomorphine-induced prepulse inhibition deficits” value was “displays effectiveness”. In addition, the “Interaction with M2 muscarinic receptors” value at M2 muscarinic receptors is listed as “minimal to no interaction”. Besides, the “Effect on MK-801 induced deficits in the OR task” value in the data set on rats [6] is “tends to reverse MK-801 induced deficits”. Besides, in data set [7] (rat α7 in GH4C1 cells, FIGS. 1A.2 and 1B), the “Functional activity at the α7 subtype” value is “potent agonism throughout the concentration range of 1-50 nM”.

For the compound `O=C(N[C@@H]1C2CCN(CC2)[C@H]1Cc1cccnc1)c1cc2ccccc2o1.O=P(O)(O)O` [phosphoric acid salt], the Water solubility result in data set [2] is listed as “good water solubility”. In addition, the Hygroscopicity result in data set [8] is listed as “low hygroscopicity”.

`Cl.O=C(N[C@@H]1C2CCN(CC2)[C@H]1Cc1cccnc1)c1cc2ccccc2o1` [hydrochloric acid salt]: the Water solubility result in data set [2] is given as “good water solubility”. The Hygroscopicity entry in [8] is on record as “low hygroscopicity”.

For the compound `O=C(N[C@@H]1C2CCN(CC2)[C@H]1Cc1cccnc1)c1cc2ccccc2o1.O=C(O)/C=C\C(=O)O` [maleic acid salt], the Water solubility entry in [2] was “good water solubility”. Moreover, in data set [8], the Hygroscopicity result is on record as “low hygroscopicity”.

As for `Cc1ccc(S(=O)(=O)O)cc1.O=C(N[C@@H]1C2CCN(CC2)[C@H]1Cc1cccnc1)c1cc2ccccc2o1` [p-toluenesulfonic acid salt], the Water solubility result in data set [2] is “good water solubility”. For the same compound, in data set [8], the Hygroscopicity result is “low hygroscopicity”. The “XRPD form after storage” value in data set [9] is given as “reveals a change but the sample is still Form 1”.
